Laboratory results: patent US7932262B2 (Novartis AG, priority 2006, dated 2011)
Read-outs that look alike come from different tables or passages of the source.

How the values were obtained:
PDK1 kinase = molecular target: T1, PDK1 kinase (Homo sapiens, UniProt O15530); experiment: PDK1 Kinase Alpha Screen Assay; type: biochemical; conditions: PDK1 Kinase Alpha Screen Assay; read-out: PDK1 IC50
T1 sequence (O15530 1-556): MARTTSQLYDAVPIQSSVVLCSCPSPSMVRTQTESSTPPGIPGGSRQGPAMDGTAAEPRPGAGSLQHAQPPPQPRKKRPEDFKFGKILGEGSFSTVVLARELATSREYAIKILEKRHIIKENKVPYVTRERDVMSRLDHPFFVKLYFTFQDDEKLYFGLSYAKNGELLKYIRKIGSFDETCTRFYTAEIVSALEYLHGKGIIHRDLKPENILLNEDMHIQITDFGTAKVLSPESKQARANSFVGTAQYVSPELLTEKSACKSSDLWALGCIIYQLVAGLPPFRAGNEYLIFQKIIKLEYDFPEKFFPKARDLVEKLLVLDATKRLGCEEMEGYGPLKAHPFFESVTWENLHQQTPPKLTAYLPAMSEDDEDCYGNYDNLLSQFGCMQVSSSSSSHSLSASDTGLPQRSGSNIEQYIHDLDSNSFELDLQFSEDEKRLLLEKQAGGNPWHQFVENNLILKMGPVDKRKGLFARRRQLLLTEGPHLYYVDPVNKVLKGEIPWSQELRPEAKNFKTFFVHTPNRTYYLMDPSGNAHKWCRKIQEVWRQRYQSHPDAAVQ
Procedure, shortened: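 PDK1, 10 uM ATP, 50 nM biotin-PDK1-4 peptide; 50 mM Tris pH 7.5, 10 mM MgCl2, 0.1% BSA, 0.01% Tween-20, 2 mM DTT, 2.5% DMSO; 3-18 h. EDTA stop; AlphaScreen, phospho-Ser/Thr antibody, overnight RT.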

PC3MM cells = experiment: Cell Proliferation Assay (Cell Titer Glo), PC3MM; type: cell-based; conditions: Cell Proliferation Assay, read-out: CPEC50 PC3MM
Protocol: IV. Cell Proliferation Assay Protocol:
A2780, PC-3, or PC3MM cells were seeded at 1000 cells/well in 100 μL/well (10.000 cells/mL) growth media in 96-well plates. Cells were allowed to adhere to the bottom of plates for 3-5 hours in a 37° C. 5% CO2 incubator. Compounds were dissolved in DMSO and then transferred to the cell plates. The cells were incubated with the compounds for 3 days in a 37° C. 5% CO2 incubator. The growth medium containing the compounds was then removed from the cells and fresh medium was added, followed by 100 μL of Cell Titer Glo assay reagent (Promega). This mixture was shaken for 1 minute and then incubated without shaking for 10 minutes. Activity determinations for the compounds were made by detection on a Trilux Instrument.

| IC50 (PDK1 kinase) [µM] | EC50 (PC3MM cells; PC3MM) [µM] | EC50 (PC3MM cells; PC3MM cells) [µM] | SMILES |
| --- | --- | --- | --- |
| < 5 | < 5 | – | CC(=O)Nc1cc(Nc2ncc3ccc(OC4CCNCC4)cc3n2)cc(-c2cn[nH]c2)c1 [Compound 659, N-(3-(7-(piperidin-4-yloxy)quinazolin-2-ylamino)-5-(1H-pyrazol-4-yl)phenyl)acetamide] |
| < 5 | < 5 | – | CN1CCC(Oc2ccc3cnc(Nc4cc(C(N)=O)cc(-c5cnn(C)c5)c4)nc3c2)CC1 [Compound 660, 3-(1-methyl-1H-pyrazol-4-yl)-5-(7-(1-methylpiperidin-4-yloxy)quinazolin-2-ylamino)benzamide] |
| < 5 | < 5 | – | COC(=O)Nc1cc(Nc2ncc3cc(-c4cn[nH]c4)c(OC4CCNCC4)cc3n2)cc(-c2cn[nH]c2)c1 [Compound 661, methyl 3-(7-(piperidin-4-yloxy)-6-(1H-pyrazol-4-yl)quinazolin-2-ylamino)-5-(1H-pyrazol-4-yl)phenylcarbamate] |
| < 5 | < 5 | – | COC(=O)Nc1cc(Nc2ncc3cc(-c4nccs4)c(OC4CCNCC4)cc3n2)cc(-c2cn[nH]c2)c1 [Compound 662, methyl 3-(7-(piperidin-4-yloxy)-6-(thiazol-2-yl)quinazolin-2-ylamino)-5-(1H-pyrazol-4-yl)phenylcarbamate] |
| < 5 | 5 to 10 | – | NC(=O)c1cc(Nc2ncc3cc(-c4cn[nH]c4)cc(OC4CCNCC4)c3n2)cc(N2CCOCC2)c1 [Compound 663, 3-morpholino-5-(8-(piperidin-4-yloxy)-6-(1H-pyrazol-4-yl)quinazolin-2-ylamino)benzamide] |
| < 5 | 5 to 10 | – | O=C(c1cc(Nc2ncc3cc(-c4cn[nH]c4)cc(OC4CCNCC4)c3n2)cc(N2CCOCC2)c1)N1CCOCC1 [Compound 664, morpholino(3-morpholino-5-(8-(piperidin-4-yloxy)-6-(1H-pyrazol-4-yl)quinazolin-2-ylamino)phenyl)methanone] |
| < 5 | 5 to 10 | – | Cn1cc(-c2cc(Nc3ncc4cc(-c5cn[nH]c5)cc(OC5CCNCC5)c4n3)cc(C(N)=O)c2)cn1 [Compound 665, 3-(1-methyl-1H-pyrazol-4-yl)-5-(8-(piperidin-4-yloxy)-6-(1H-pyrazol-4-yl)quinazolin-2-ylamino)benzamide] |
| < 5 | 5 to 10 | – | C#Cc1cc(OC2CCNCC2)c2nc(Nc3cc(C(N)=O)cc(N4CCOCC4)c3)ncc2c1 [Compound 666, 3-(6-ethynyl-8-(piperidin-4-yloxy)quinazolin-2-ylamino)-5-morpholinobenzamide] |
| < 5 | < 5 | – | C#Cc1cc(OC2CCNCC2)c2nc(Nc3cc(C(=O)N4CCOCC4)cc(N4CCOCC4)c3)ncc2c1 [Compound 667, (3-(6-ethynyl-8-(piperidin-4-yloxy)quinazolin-2-ylamino)-5-morpholinophenyl)(morpholino) methanone] |
| < 5 | < 5 | – | C#Cc1cc(OC2CCNCC2)c2nc(Nc3cc(C(N)=O)cc(-c4cnn(C)c4)c3)ncc2c1 [Compound 668, 3-(6-ethynyl-8-(piperidin-4-yloxy)quinazolin-2-ylamino)-5-(1-methyl-1H-pyrazol-4-yl)benzamide] |
| < 5 | 5 to 10 | – | NC(=O)c1cc(Nc2ncc3cc(Br)cc(OC4CCNCC4)c3n2)cc(N2CCOCC2)c1 [Compound 669, 3-(6-bromo-8-(piperidin-4-yloxy)quinazolin-2-ylamino)-5-morpholinobenzamide] |
| < 5 | < 5 | – | O=C(c1cc(Nc2ncc3cc(Br)cc(OC4CCNCC4)c3n2)cc(N2CCOCC2)c1)N1CCOCC1 [Compound 670, (3-(6-bromo-8-(piperidin-4-yloxy)quinazolin-2-ylamino)-5-morpholinophenyl)(morpholino) methanone] |
| < 5 | < 5 | – | Cn1cc(-c2cc(Nc3ncc4cc(Br)cc(OC5CCNCC5)c4n3)cc(C(N)=O)c2)cn1 [Compound 671, 3-(6-bromo-8-(piperidin-4-yloxy)quinazolin-2-ylamino)-5-(1-methyl-1H-pyrazol-4-yl)benzamide] |
| < 5 | 5 to 10 | – | NC(=O)c1cc(Nc2ncc3cc(-c4nccs4)cc(OC4CCNCC4)c3n2)cc(N2CCOCC2)c1 [Compound 672, 3-morpholino-5-(8-(piperidin-4-yloxy)-6-(thiazol-2-yl)quinazolin-2-ylamino)benzamide] |
| < 5 | 5 to 10 | – | Cn1cc(-c2cc(Nc3ncc4cc(-c5nccs5)cc(OC5CCNCC5)c4n3)cc(C(N)=O)c2)cn1 [Compound 673, 3-(1-methyl-1H-pyrazol-4-yl)-5-(8-(piperidin-4-yloxy)-6-(thiazol-2-yl)quinazolin-2-ylamino)benzamide] |
| < 5 | 5 to 10 | – | NC(=O)c1cc(Nc2ncc3cc(-c4cn[nH]c4)c(OC4CCNCC4)cc3n2)cc(N2CCOCC2)c1 [Compound 674, 3-morpholino-5-(7-(piperidin-4-yloxy)-6-(1H-pyrazol-4-yl)quinazolin-2-ylamino)benzamide] |
| < 5 | 5 to 10 | – | NC(=O)c1cc(Nc2ncc3cc(-c4nccs4)c(OC4CCNCC4)cc3n2)cc(N2CCOCC2)c1 [Compound 675, 3-morpholino-5-(7-(piperidin-4-yloxy)-6-(thiazol-2-yl)quinazolin-2-ylamino)benzamide] |
| < 5 | < 5 | – | COC(=O)Nc1cc(Nc2ncc3cc(-c4cn[nH]c4)c(OC4CCN(C)CC4)cc3n2)cc(-c2cn[nH]c2)c1 [Compound 676, methyl 3-(7-(1-methylpiperidin-4-yloxy)-6-(1H-pyrazol-4-yl)quinazolin-2-ylamino)-5-(1H-pyrazol-4-yl)phenylcarbamate] |
| < 5 | 5 to 10 | – | CN1CCC(Oc2cc3nc(Nc4cc(C(N)=O)cc(N5CCOCC5)c4)ncc3cc2-c2cn[nH]c2)CC1 [Compound 677, 3-(7-(1-methylpiperidin-4-yloxy)-6-(1H-pyrazol-4-yl)quinazolin-2-ylamino)-5-morpholinobenzamide] |
| < 5 | < 5 | – | CN1CCC(Oc2cc3nc(Nc4cc(C(N)=O)cc(N5CCOCC5)c4)ncc3cc2-c2nccs2)CC1 [Compound 678, 3-(7-(1-methylpiperidin-4-yloxy)-6-(thiazol-2-yl)quinazolin-2-ylamino)-5-morpholinobenzamide] |
| < 5 | 5 to 10 | – | C#Cc1cc2cnc(Nc3cc(C(N)=O)cc(N4CCOCC4)c3)nc2cc1OC1CCNCC1 [Compound 679, 3-(6-ethynyl-7-(piperidin-4-yloxy)quinazolin-2-ylamino)-5-morpholinobenzamide] |
| < 5 | 5 to 10 | – | NC(=O)c1cc(Nc2ncc3cc(-c4cnoc4)c(OC4CCNCC4)cc3n2)cc(N2CCOCC2)c1 [Compound 680, 3-(6-(isoxazol-4-yl)-7-(piperidin-4-yloxy)quinazolin-2-ylamino)-5-morpholinobenzamide] |
| < 5 | 5 to 10 | – | CN1CCC(Oc2cc3nc(Nc4ccc5nc(C(F)(F)F)[nH]c5c4)ncc3cc2-c2nccs2)CC1 [Compound 681, 7-(1-methylpiperidin-4-yloxy)-6-(thiazol-2-yl)-N-(2-(trifluoromethyl)-1H-benzo[d]imidazol-6-yl)quinazolin-2-amine] |
| < 5 | < 5 | – | COc1cc(Nc2ncc3cc(-c4nccs4)c(OC4CCNCC4)cc3n2)cc(-n2nnnc2C)c1 [Compound 682, N-(3-methoxy-5 (5-methyl-1H-tetrazol-1-yl)phenyl)-7-(piperidin-4-yloxy)-6-(thiazol-2-yl)quinazolin-2-amine] |
| < 5 | < 5 | – | CC(=O)N1CCC(Oc2cc3nc(Nc4ccc(N5CCOCC5)cc4)ncc3cc2-c2nccs2)CC1 [Compound 690, 1-(4-(2-(4-morpholinophenylamino)-6-(thiazol-2-yl)quinazolin-7-yloxy)piperidin-1-yl)ethanone] |
| < 5 | – | < 5 | COc1c(-c2cnn(CC(C)C)c2)ccc2cnc(Nc3cc(CN4CCOCC4)cc(NC(C)=O)c3)nc12 [Compound 715, N-(3-(7-(1-isobutyl-1H-pyrazol-4-yl)-8-methoxyquinazolin-2-ylamino)-5-(morpholinomethyl)phenyl)acetamide] |
| < 5 | – | < 5 | COC(=O)Nc1cc(CN2CCOCC2)cc(Nc2ncc3ccc(-c4cnn(CCC(C)C)c4)c(OC)c3n2)c1 [Compound 716, methyl 3-(7-(1-isopentyl-1H-pyrazol-4-yl)-8-methoxyquinazolin-2-ylamino)-5-(morpholinomethyl)phenyl carbamate] |
